Assay results reported in BindingDB's records for doi:10.1021/jm070014g (2007).

Molecular target: T1, Protein Tat (Human immunodeficiency virus type 1 group M subtype B (isolate HXB2), UniProt P04608)
T1 sequence (P04608 whole entry): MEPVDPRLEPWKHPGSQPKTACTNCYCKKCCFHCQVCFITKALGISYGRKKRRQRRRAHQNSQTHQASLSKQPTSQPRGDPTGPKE
Assay: Inhibition of Tat-mediated transcription of viral promoter in 293 T cells transfected with HIV1 tat by luciferase reporter gene assay

## Cc1ccc(NCCCN)c([N+](=O)[O-])c1
  EC50: 10 µM

## CC(Cl)c1ccc(NCCCN)c([N+](=O)[O-])c1 (configuration not stated)
  EC50: 1 µM
